Experimental findings from patent publication US10377731B2, “Compositions and methods for cancer treatment” (Boston Biomedical, Inc., priority 2007, dated 2019) are described below.

“Also recorded” adds a separate entry of the source.

The subject of test [1] is Stat3. The test is described as follows: Stat3-luciferase (Stat3-Luc) reporter assay, OSM-stimulated HeLa cells. Format: cell-based. The following applies: HeLa cells. Here is the method: Luciferase Reporter Assay: HeLa Cells were co-transfected with Stat3-luciferase (Stat3-Luc) reporter vector (Panomics, Fremont, Calif.) and Renilla luciferase (Promega, Madison, Wis.) using Lipofectamine 2000 as described by the manufacturer (Invitrogen). Following transfection, cells were maintained in medium containing 0.5% FBS for 24 hours. Cells were then treated with the indicated compound for 30 minutes prior to the addition of 25 ng/ml oncostatin M (OSM) (R&D Systems, Minneapolis, Minn.) to the medium. 6 hours following OSM addition, cells were harvested and levels of firefly and renilla luciferase were measured using the Dual-Glo Luciferase Assay System as described by the manufacturer (Promega).
Inhibition of Stat3 transcription activity. Compounds were tested for their ability to inhibit Stat3 transcription activation activity in cells using a Stat3-luciferase (Stat3-luc) reporter construct. Cells transfected with Stat3-luc were cultured in reduced serum medium prior to addition of indicated compound for 30 minutes. Cells were then stimulated with 25 ng/ml oncostatin M (OSM) for 6 hours followed by detection of Stat3-luc reporter activity. […] AG490, a known inhibitor of the Jak-Stat pathway, was included as a positive control for Stat3 inhibition.
Background: Reporter assays use an easily measured gene product as a stand-in for the process of interest.

Test [2] deals with Stat3. The test is described as follows: Stat3 DNA binding assay (EMSA), HeLa nuclear extract. Format: biochemical. The following applies: HeLa nuclear extract with constitutively activated Stat3. Here is the method: STAT3 DNA Binding Assay: Electrophoretic mobility shift assay (EMSA) was performed as described by the manufacturer (Li-Cor Biosciences, Lincoln, Nebr.). Briefly, nuclear extracts were made from HeLa cells using the NucBuster Protein Extraction Kit as described by the manufacturer (EMD Biosciences, San Diego, Calif.). 5 μg of nuclear extract was pre-incubated with the indicated dose of indicated compound for 30 minutes prior to a 15-minute incubation with the IR700-labeled consensus Stat3 oligonucleotide. Samples were then electrophoresed on a polyacrylamide gel and directly scanned using the Odyssey infrared imaging system (Li-Cor Biosciences). For the enzyme-linked immunosorbent assay (ELISA), 5 μg of nuclear extract was preincubated with indicated concentration of indicated compound for 30 minutes prior to the addition of biotinylated oligo (5′-Biotin-[…]-3′ SEQ ID NO. 1). Stat3-DNA complexes were then captured on streptavidin coated 96 well plates (Pierce, Rockford, Ill.). Bound complexes were then incubated with Stat3 polyclonal antibody (Santa Cruz Biotechnology, Santa Cruz, Calif.) followed by anti-rabbit HRP conjugated secondary antibody (GE Healthcare, Pittsburgh, Pa.). Bound antibody was then visualized by addition of TMB substrate (Pierce) and absorbance measured at 450 nm.
Inhibition of Stat3 DNA-binding activity. Nuclear extracts from HeLa cells, which contain constitutively activated Stat3 as detected by phosphorylation at the tyrosine 705 residue, were used to perform Stat3 EMSAs to monitor Stat3 DNA binding activity. Nuclear extracts were incubated with indicated compound prior to incubation with IR700-labeled Stat3 consensus oligonucleotide. Binding of Stat3 to the oligonucleotide was monitored by gel electrophoresis and detection using a LiCor Odyssey infrared scanner.

The subject of a further test is CD133+ cells. The test is described as follows: Cleaved-Caspase 3 staining of CD133+ cells. It is filed as cell-based. The note with it: CD133+ cells enriched with antibody magnetic beads. An excerpt:
CSC isolation with surface markers: Sorting tumor cells based primarily upon the differential expression of the surface marker(s), such as CD44 or CD133, have accounted for the majority of the highly tumorigenic CSCs described to date. CD133 isolation is based upon the method of Ricci-Vitiani et al., with slight modification. CD133^+ cells were isolated by either fluorescence activated cell sorting (FACS) or magnetic nanoparticle-based separation. Briefly, 10^7 cells/mL were labeled with CD133/1 (AC133)-PE for FACS-based cell sorting; or with CD133/1 (AC133)-biotin (Miltenyi Biotec, Auburn, Calif.) for magnetic field-based separation using the EasySep® biotin selection kit (Miltenyi Biotec) according to the manufacturer's recommendations. Non-specific labeling was blocked with the supplied FcR blocking reagent and antibody incubations (1:11) were carried out on ice for 15 minutes in PBS with 2% FBS and 1 mM EDTA. Five washes were done for EasySep® isolation, whereas cells were pelleted at 400×g for 5 minutes and resuspended at 2×10^7/mL, before sorting by FACS.
Immunofluorescence: Cells treated with indicated compound for an indicated time were either fixed in 4% formaldehyde or cold methanol for the detection of Annexin V, cleaved caspase 3, or stat3, respectively. Coverslips were air dried and rehydrated in PBS at room temperature for 10 min. […]

Test [3] has as its system Paca2 human pancreatic cancer cells. The test is described as follows: Colony formation, Paca2 cells, single drugs and combinations. It is filed as cell-based. The note with it: Homo sapiens, read-out: Compound 401 (% Inhibition). The protocol:
Paca2 human pancreatic cancer cells, A549 human lung cancer cells, and HepG2 human liver cancer cells (American Type Culture Collection) were cultured in Dulbecco's modified Eagle's medium containing 10% fetal bovine serum, 100 units/mL penicillin, 100 μg/mL streptomycin, and 2 mM L-glutamine. […] Erlotinib was from American Custom Chemicals (San Diego, Calif.). Gemcitabine was from Eli Lilly (Indianapolis, Ind.) in an aqueous 20 mM stock solution. Sorafenib was Mass.). Unless otherwise noted all compounds were solubilized in DMSO at 10 mM and aliquoted at −20° C. Exponentially growing Paca2 pancreatic cancer cells were seeded at 1,000 cells per well in 6-well plates and allowed to attach for 24 hours. Increasing concentrations of individual drugs and those in combination were then added to the media for another 24 hours. After 24 hours exposure, the drug was removed and fresh media was added for the next 10-14 days, allowing for colony formation. Cells were fixed and stained with GIEMSA (Gibco BRL). […] Results are an average of duplicate experiments. Alternatively, MTT assays were performed 72 hours post-treatment in A549 and HepG2 cells.

For the molecule `CC(=O)c1cc2c(o1)C(=O)c1ccccc1C2=O` [Compound 401, 2-acetylnaphtho[2,3-b]furan-4,9-dione], the “Inhibition of OSM-stimulated Stat3 reporter activity (in words)” value in the test on Stat3 [1] (Stat3-luc, 25 ng/ml OSM for 6 hours) was “inhibits”. Further, the IC50 in the test on Stat3 [1] (Homo sapiens, compound 30 minutes before 25 ng/ml oncostatin M, read 6 hours later, read-out: IC50 in Stat3-Luc assays) is about 250 nM. Besides, the “Inhibition of Stat3 DNA-binding activity (in words)” value in the test with Stat3 [2] is given as “Dose dependent inhibition; also recorded: can inhibit”. In addition, in the test with CD133+ cells, the “Cleaved-Caspase 3 staining (apoptosis)” value is listed as “many of the CD133^+ cells become cleaved-Caspase 3 positive; also recorded: apoptotic”. In addition, the inhibition at 0.066 µM in test [3] (PaCa-2, 401 alone 66 nM) amounted to 32%. In test [3] (PaCa-2, 401 alone 133 nM), the inhibition at 0.133 µM was 66%.

The term IC50 denotes the point on the concentration scale where inhibition reaches its midpoint. For orientation: inhibition means the relative decrease from the control value, in per cent.
